These are literature values, as cited in paper PMC9328939, “A Randomized Double‐Blind Placebo‐Controlled First‐In‐Human Phase 1 Trial of TransCon PTH in Healthy Adults” (Journal of Bone and Mineral Research, 2020).

For one data set, the system named is PTH/PTHrP receptor. Conditions: stated without data; no reference given; cited from earlier work.
In the next data set the test system is healthy volunteers. Conditions: sCa raised comparably to a calcium clamp (10.3 mg/dL; FECa 6.0% to 7.0%) by infusion of PTHrP(1-36); cited from earlier work. An excerpt: TransCon PTH may also positively impact hypercalciuria, a major cause of morbidity in patients with HP.
For data set [1] the following is noted: short-acting PTH(1-84); cited from earlier work. An excerpt:
The TransCon PTH bone turnover data are similar to the published literature, which illustrate that continuous PTH administration is not anabolic. […] TransCon PTH did modestly and transiently increase the bone resorption marker, serum CTx, consistent with t ...

Regarding “PTH(1‐33): metabolite of PTH(1-34) shortened by a single amino acid; part of Free PTH (SVSEIQLMHNLGKHLNSMERVEWLRKKLQDVHN; Parathyroid hormone; UniProt P01270 32-64, looked up, fragment)”, the “potency at the PTH/PTHrP receptor relative to PTH(1-34)” value with PTH/PTHrP receptor is “equipotency”. For the molecule “PTHrP(1‐36): parathyroid hormone-related protein fragment infused in healthy volunteers in a literature study”, the FECa result in the data set on healthy volunteers is given as “did not differ from normal controls”.

B1: PTH(1‐84): parathyroid hormone for injection, once-daily short-acting rhPTH(1-84) (protein, UniProt P01270 32-115, looked up)
Parathyroid hormone: SVSEIQLMHNLGKHLNSMERVEWLRKKLQDVHNFVALGAPLAPRDAGSQRPRKKEDNVLVESHEKSLGEADKADVNVLTKAKSQ
modifications: Parathyroid hormone
Consider B1, for which the “persistent increase in CTx” value in data set [1] is given as 200%.
